Results: patent publication US11498899B2, “Nitrone herbicides” (FMC Corporation, priority 2016, dated 2022)

How the values were obtained:
[1] = tested on: barnyardgrass (Echinochloa crus-galli); experiment: Test A preemergence, visual injury rating 0-100 (0 no effect, 100 complete control); format: in vivo; conditions: for Barnyardgrass plant response rating (0 to 100 scale): 125 g ai/ha
Excerpt: (§1) Seeds of plant species selected from barnyardgrass (Echinochloa crus-galli), kochia (Kochia scoparia), ragweed (common ragweed, Ambrosia elatior), ryegrass, Italian (Italian ryegrass, Lolium multiflorum), foxtail, giant (giant foxtail, Setaria faberii), foxtail, green (green foxtail, Setaria viridis), and pigweed (Amaranthus retroflexus) were planted into a blend of loam soil and sand and treated preemergence with a directed soil spray using test chemicals formulated in a non-phytotoxic solvent mixture which included a surfactant.
(§2) At the same time, plants selected from these weed species and also wheat (Triticum aestivum), corn (Zea mays), blackgrass (Alopecurus myosuroides), and galium (catchweed bedstraw, Galium aparine) were planted in pots containing the same blend of loam soil and sand and treated with postemergence applications of test chemicals formulated in the same manner. Plants ranged in height from 2 to 10 cm and were in the one- to two-leaf stage for the postemergence treatment. Treated plants and untreated controls were maintained in a greenhouse for approximately 10 days, after which time all treated plants were compared to untreated controls and visually evaluated for injury. […] A dash (-) response means no test result.

[2] = tested on: foxtail, giant (giant foxtail, Setaria faberii); experiment: Test A postemergence, visual injury rating 0-100; format: in vivo; conditions: 0 to 100 scale
Excerpt: as §1, §2

corn (Zea mays) = experiment: Test A postemergence, visual injury rating 0-100; format: in vivo; conditions: 0 to 100 scale
Excerpt: as §1, §2

[3] = tested on: ragweed (common ragweed, Ambrosia elatior); experiment: Test A postemergence, visual injury rating 0-100; format: in vivo; conditions: 0 to 100 scale
Excerpt: as §1, §2

kochia (Kochia scoparia) [4] = experiment: Test A postemergence, visual injury rating 0-100; format: in vivo; conditions: 0 to 100 scale
Excerpt: as §1, §2

[5] = tested on: wheat (Triticum aestivum); experiment: Test A postemergence, visual injury rating 0-100; format: in vivo; conditions: 0 to 100 scale
Excerpt: as §1, §2

[6] = tested on: galium (catchweed bedstraw, Galium aparine); experiment: Test A postemergence, visual injury rating 0-100; format: in vivo; conditions: 0 to 100 scale
Excerpt: as §1, §2

[7] = tested on: barnyardgrass (Echinochloa crus-galli); experiment: Test A postemergence, visual injury rating 0-100; format: in vivo; conditions: 0 to 100 scale
Excerpt: as §1, §2

[8] = tested on: ryegrass, Italian (Italian ryegrass, Lolium multiflorum); experiment: Test A postemergence, visual injury rating 0-100; format: in vivo; conditions: 0 to 100 scale
Excerpt: as §1, §2

[9] = tested on: pigweed (Amaranthus retroflexus); experiment: Test A postemergence, visual injury rating 0-100; format: in vivo; conditions: 0 to 100 scale
Excerpt: as §1, §2

[10] = tested on: blackgrass (Alopecurus myosuroides); experiment: Test A postemergence, visual injury rating 0-100; format: in vivo; conditions: 0 to 100 scale
Excerpt: as §1, §2

[11] = tested on: foxtail, giant (giant foxtail, Setaria faberii); experiment: Test A preemergence, visual injury rating 0-100; format: in vivo; conditions: for Foxtail, Giant plant response rating (0 to 100 scale): 125 g ai/ha
Excerpt: as §1, §2

[12] = tested on: ragweed (common ragweed, Ambrosia elatior); experiment: Test A preemergence, visual injury rating 0-100; format: in vivo
Excerpt: as §1, §2

kochia (Kochia scoparia) [13] = experiment: Test A preemergence, visual injury rating 0-100; format: in vivo
Excerpt: as §1, §2

[14] = tested on: ryegrass, Italian (Italian ryegrass, Lolium multiflorum); experiment: Test A preemergence, visual injury rating 0-100; format: in vivo
Excerpt: as §1, §2

[15] = tested on: pigweed (Amaranthus retroflexus); experiment: Test A preemergence, visual injury rating 0-100; format: in vivo
Excerpt: as §1, §2

rice (Oryza sativa) = experiment: Test B flooded paddy test, visual rating 0-100 (0 no effect, 100 complete control); conditions: Flood, 250 g ai/ha, applied to paddy water, rated after 13 to 15 days
[16] = tested on: ducksalad (Heteranthera limosa); experiment: Test B flooded paddy test, visual rating 0-100; conditions: Flood, 250 g ai/ha, applied to paddy water, rated after 13 to 15 days
[17] = tested on: barnyardgrass (Echinochloa crus-galli); experiment: Test B flooded paddy test, visual rating 0-100; conditions: Flood, 250 g ai/ha, applied to paddy water, rated after 13 to 15 days
[18] = 31 g ai/ha, 0 to 100 scale (0 no effect, 100 complete control), approx. 10 days

Compound | Barnyardgrass plant response rating (0 to 100 scale) [1] | Barnyardgrass plant response rating ([1]; 500 g ai/ha, 0 to 100 scale) | Foxtail, Giant plant response rating ([2]; 125 g ai/ha) | Corn plant response rating (corn (Zea mays); 125 g ai/ha) | Ragweed plant response rating ([3]; 125 g ai/ha) | Kochia plant response rating (kochia (Kochia scoparia) [4]; 125 g ai/ha) | Wheat plant response rating ([5]; 125 g ai/ha) | Galium plant response rating ([6]; 125 g ai/ha) | Barnyardgrass plant response rating ([7]; 125 g ai/ha) | Ryegrass, Italian plant response rating ([8]; 125 g ai/ha) | Pigweed plant response rating ([9]; 125 g ai/ha) | Blackgrass plant response rating ([10]; 125 g ai/ha) | Foxtail, Giant plant response rating (0 to 100 scale) [11] | Ragweed plant response rating (0 to 100 scale) ([12]; 125 g ai/ha) | Kochia plant response rating (0 to 100 scale) (kochia (Kochia scoparia) [13]; 125 g ai/ha) | Ryegrass, Italian plant response rating (0 to 100 scale) ([14]; 125 g ai/ha) | Pigweed plant response rating (0 to 100 scale) ([15]; 125 g ai/ha) | Rice plant response rating (0 to 100 scale) (rice (Oryza sativa)) | Ducksalad plant response rating (0 to 100 scale) [16] | Barnyardgrass plant response rating (0 to 100 scale) [17] | further results
CC1=[N+]([O-])C(C(=O)Nc2cccc(F)c2F)C(c2c(F)cccc2Cl)C1 (racemic) [Compound 14] | 0 | 0 | 0 | 0 | 0 | 0 | 0 | 0 | 0 | 0 | 0 | 0 | 0 | 0 | 0 | 0 | 0 | 0 | 20 | 40 | Foxtail, Giant plant response rating ([2]; 500 g ai/ha): 0; Corn plant response rating (corn (Zea mays); 500 g ai/ha): 0; Ragweed plant response rating ([3]; 500 g ai/ha): 0; Kochia plant response rating (kochia (Kochia scoparia) [4]; 500 g ai/ha): 0; Wheat plant response rating ([5]; 500 g ai/ha): 0; Galium plant response rating ([6]; 500 g ai/ha): 0; Barnyardgrass plant response rating ([7]; 500 g ai/ha): 0; Ryegrass, Italian plant response rating ([8]; 500 g ai/ha): 0; Pigweed plant response rating ([9]; 500 g ai/ha): 0; Blackgrass plant response rating ([10]; 500 g ai/ha): 0; Foxtail, Giant plant response rating ([11]; 500 g ai/ha, 0 to 100 scale): 0; Ragweed plant response rating ([12]; 500 g ai/ha, 0 to 100 scale): 0; Kochia plant response rating (kochia (Kochia scoparia) [13]; 500 g ai/ha, 0 to 100 scale): 0; Ryegrass, Italian plant response rating ([14]; 500 g ai/ha, 0 to 100 scale): 0; Pigweed plant response rating ([15]; 500 g ai/ha, 0 to 100 scale): 0
CC1=[N+]([O-])C(C(=O)Nc2cccc(F)c2F)C(c2cccc(C)c2)C1 (racemic) [Compound 15] | 100 | 100 | 80 | 60 | 0 | 0 | 40 | 0 | 90 | 30 | 0 | 0 | 100 | 0 | 0 | 0 | 0 | 15 | 95 | 85 | Foxtail, Giant plant response rating ([2]; 500 g ai/ha): 90; Corn plant response rating (corn (Zea mays); 500 g ai/ha): 90; Ragweed plant response rating ([3]; 500 g ai/ha): 50; Kochia plant response rating (kochia (Kochia scoparia) [4]; 500 g ai/ha): 30; Wheat plant response rating ([5]; 500 g ai/ha): 50; Galium plant response rating ([6]; 500 g ai/ha): 30; Barnyardgrass plant response rating ([7]; 500 g ai/ha): 90; Ryegrass, Italian plant response rating ([8]; 500 g ai/ha): 50; Pigweed plant response rating ([9]; 500 g ai/ha): 40; Blackgrass plant response rating ([10]; 500 g ai/ha): 30; Foxtail, Giant plant response rating ([11]; 500 g ai/ha, 0 to 100 scale): 100; Ragweed plant response rating ([12]; 500 g ai/ha, 0 to 100 scale): 90; Kochia plant response rating (kochia (Kochia scoparia) [13]; 500 g ai/ha, 0 to 100 scale): 30; Ryegrass, Italian plant response rating ([14]; 500 g ai/ha, 0 to 100 scale): 50; Pigweed plant response rating ([15]; 500 g ai/ha, 0 to 100 scale): 0
CC1=[N+]([O-])C(C(=O)Nc2cccc(F)c2F)C(c2ccc(F)c(Oc3ccc(F)cn3)c2)C1 (racemic) [Compound 48] | 90 |  | 0 | 0 | 30 | 0 | 0 | 40 | 0 | 30 | 30 | 70 | 90 | 0 | 0 | 20 | 0 | 10 | 70 | 20 | Barnyardgrass plant response rating [1, 18]: 0; Foxtail, Giant plant response rating ([2]; 31 g ai/ha): 0; Corn plant response rating (corn (Zea mays); 31 g ai/ha): 0; Ragweed plant response rating ([3]; 31 g ai/ha): 0; Kochia plant response rating (kochia (Kochia scoparia) [4]; 31 g ai/ha): 0; Wheat plant response rating ([5]; 31 g ai/ha): 0; Galium plant response rating ([6]; 31 g ai/ha): 20; Barnyardgrass plant response rating ([7]; 31 g ai/ha): 0; Ryegrass, Italian plant response rating ([8]; 31 g ai/ha): 30; Pigweed plant response rating ([9]; 31 g ai/ha): 0; Blackgrass plant response rating ([10]; 31 g ai/ha): 30; Foxtail, Giant plant response rating [11, 18]: 0; Ragweed plant response rating [12, 18]: 0; Kochia plant response rating (kochia (Kochia scoparia) [13]; [18]): 0; Ryegrass, Italian plant response rating [14, 18]: 0; Pigweed plant response rating [15, 18]: 0
CC1=[N+]([O-])C(C(=O)Nc2cccc(F)c2F)C(c2cccc(C)n2)C1 (racemic) [Compound 49] | 10 | 20 | 0 | 0 | 20 | 0 | 0 | 0 | 0 | 0 | 0 | 0 | 0 | 0 | 0 | 0 | 0 | 0 | 0 | 0 | Foxtail, Giant plant response rating ([2]; 500 g ai/ha): 0; Corn plant response rating (corn (Zea mays); 500 g ai/ha): 0; Ragweed plant response rating ([3]; 500 g ai/ha): 20; Kochia plant response rating (kochia (Kochia scoparia) [4]; 500 g ai/ha): 0; Wheat plant response rating ([5]; 500 g ai/ha): 0; Galium plant response rating ([6]; 500 g ai/ha): 0; Barnyardgrass plant response rating ([7]; 500 g ai/ha): 0; Ryegrass, Italian plant response rating ([8]; 500 g ai/ha): 30; Pigweed plant response rating ([9]; 500 g ai/ha): 0; Blackgrass plant response rating ([10]; 500 g ai/ha): 0; Foxtail, Giant plant response rating ([11]; 500 g ai/ha, 0 to 100 scale): 40; Ragweed plant response rating (0 to 100 scale) ([12]; 500 g ai/ha): 0; Kochia plant response rating (0 to 100 scale) (kochia (Kochia scoparia) [13]; 500 g ai/ha): 0; Ryegrass, Italian plant response rating (0 to 100 scale) ([14]; 500 g ai/ha): 20; Pigweed plant response rating (0 to 100 scale) ([15]; 500 g ai/ha): 0
